Measurements taken from patent US20250163104A1, “MACROCYCLIC IMMUNOMODULATORS” (priority 2021, published 2025).
Where a SMILES comes first, the peptide text is derived from it. Bridges are numbered along the chain shown (N, C = ends). [ ]: non-standard residue; d: D form. The star is where a group is joined. ξ: configuration not given here. Phe(4-COOH) = N[C@@H](Cc1ccc(C(=O)O)cc1)C(=O)O; Bip = N[C@@H](Cc1ccc(-c2ccccc2)cc1)C(=O)O; Phe(4-CN) = N#Cc1ccc(C[C@H](N)C(=O)O)cc1; Phe(3-Me) = Cc1cccc(C[C@H](N)C(=O)O)c1; Phe(4-Me) = Cc1ccc(C[C@H](N)C(=O)O)cc1; Val(3-OH) = CC(C)(O)[C@H](N)C(=O)O; 4Pal = N[C@@H](Cc1ccncc1)C(=O)O; Cha = N[C@@H](CC1CCCCC1)C(=O)O; Cit = NC(=O)NCCC[C@H](N)C(=O)O; Ile(3ξ) = CCC(C)[C@H](N)C(=O)O; Thr(3ξ) = CC(O)[C@H](N)C(=O)O; Phg = N[C@H](C(=O)O)c1ccccc1; Carboxymethyl = O=C(O)C*; Nle = CCCC[C@H](N)C(=O)O; Orn = NCCC[C@H](N)C(=O)O; Pra = C#CC[C@H](N)C(=O)O; Dab = NCC[C@H](N)C(=O)O; Dap = NC[C@H](N)C(=O)O; ξPra = C#CCC(N)C(=O)O; Propargyl = C#CC*

These molecules were tested against T1, human PD-1 / PD-L1-Ig binding on Jurkat cell line over-expressing human PD-1 (Jurkat-PD-1) (Homo sapiens, UniProt Q15116) (assay: Jurkat-PD-1 Cell Binding High-Content Screening Assay (CBA)). Settings: Jurkat-PD-1 cells, PE-labeled PD-L1-Ig 20 nM final; read-out: Jurkat HPD1_PDL1 IC50.
T1 construct: expressed in transfected cells; host or cells: Jurkat
T1 sequence (Q15116 25-288): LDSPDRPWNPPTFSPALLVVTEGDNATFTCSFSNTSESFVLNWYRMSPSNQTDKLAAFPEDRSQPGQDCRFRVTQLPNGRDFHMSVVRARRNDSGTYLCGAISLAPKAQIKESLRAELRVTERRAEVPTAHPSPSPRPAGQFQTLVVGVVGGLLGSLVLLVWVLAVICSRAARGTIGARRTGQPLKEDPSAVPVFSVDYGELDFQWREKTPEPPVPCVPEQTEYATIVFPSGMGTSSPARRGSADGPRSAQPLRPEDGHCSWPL
Format: cell-based
How it was run: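 PE-PD-L1-Ig 20 nM final; cells in DMEM/10% FCS; cpd pre-incubation 2 h, 37° C; ligand 1 h; PFA fix + Hoechst 33342; high-content imaging read-out.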

| IC50 | Structure (SMILES) |
| --- | --- |
| 0.011 µM | CC(C)C[C@@H]1NC(=O)[C@H](CC(N)=O)NC(=O)[C@@H](CC(C)C)NC(=O)[C@H](CN)NC(=O)[C@H](C(C)C)NC(=O)[C@H](Cc2ccc(-c3ccccc3)cc2)NC(=O)[C@H](C(C)C)NC(=O)[C@H](Cc2c[nH]c3ccccc23)NC(=O)[C@H](CC(=O)O)NC(=O)[C@H](Cc2ccc(OCC(=O)O)cc2)NC(=O)[C@H](CN)NC(=O)CSC[C@@H](C(=O)NCC(N)=O)NC(=O)[C@H](CO)NC(=O)[C@H](C(C)C)NC1=O [Compound 1289] ({CH2CO}-[Dap]Y(Carboxymethyl)DWV[Bip]V[Dap][dL]NLVSCG-NH2; thioether N-14) |
| 0.0054 µM | CC(C)C[C@@H]1NC(=O)[C@H](CCN)NC(=O)[C@@H](CC(C)C)NC(=O)[C@H](CCN)NC(=O)[C@H](C(C)C)NC(=O)[C@H](Cc2ccc(-c3ccccc3)cc2)NC(=O)[C@H](C(C)C)NC(=O)[C@H](Cc2c[nH]c3ccccc23)NC(=O)[C@H](CC(=O)O)NC(=O)[C@H](Cc2ccc(O)cc2)NC(=O)[C@H](CC(N)=O)NC(=O)CSC[C@@H](C(=O)N[C@@H](C)C(N)=O)NC(=O)[C@H]([C@@H](C)O)NC(=O)[C@H](C(C)C)NC1=O [Compound 1029] ({CH2CO}-NYDWV[Bip]V[Dab][dL][Dab]LVTCA-NH2; thioether N-14) |
| 0.0098 µM | CC(C)C[C@H]1NC(=O)[C@H](CCCN)NC(=O)[C@H](CCCN)NC(=O)[C@H](Cc2ccc(-c3ccccc3)cc2)NC(=O)[C@H](C(C)C)NC(=O)[C@H](Cc2c[nH]c3ccccc23)NC(=O)[C@H](CC(=O)O)NC(=O)[C@H](Cc2ccc(OCC(=O)O)cc2)NC(=O)[C@H](CN)NC(=O)CSC[C@@H](C(=O)N[C@@H](C)C(N)=O)NC(=O)[C@H]([C@@H](C)O)NC(=O)[C@H](C(C)C)NC(=O)[C@H](CC2CCCCC2)NC(=O)[C@H](CCN)NC1=O [Compound 1374] |
| 0.0374 µM | CCCC[C@@H]1NC(=O)[C@H](CCN)NC(=O)[C@@H](CC(C)C)NC(=O)[C@H](CCCN)NC(=O)[C@H](CCCNC(N)=O)NC(=O)[C@H](Cc2ccc(-c3ccccc3)cc2)NC(=O)[C@H](CC(C)C)NC(=O)[C@H](Cc2cccc(C)c2)NC(=O)[C@H](CC(=O)O)NC(=O)[C@H](Cc2ccc(O)cc2)NC(=O)[C@H](CC(N)=O)NC(=O)CSC[C@@H](C(=O)N[C@@H](C)C(N)=O)NC(=O)[C@H]([C@@H](C)O)NC(=O)[C@H](C(C)C)NC1=O [Compound 1307] ({CH2CO}-NYD[Phe(3-Me)]L[Bip][Cit][Orn][dL][Dab][Nle]VTCA-NH2; thioether N-14) |
| 0.0132 µM | C#CCOc1ccc(C[C@@H]2NC(=O)[C@H](Cc3ccc(-c4ccccc4)cc3)NC(=O)[C@H](Cc3ccc(C(=O)O)cc3)NC(=O)[C@H](Cc3cccc(C)c3)NC(=O)[C@H](CC(=O)O)NC(=O)[C@H](Cc3ccc(C(=O)O)cc3)NC(=O)[C@H](Cc3ccc(OCC(=O)O)cc3)NC(=O)CSC[C@@H](C(=O)N[C@@H](CCN)C(N)=O)NC(=O)[C@H](CCC(=O)O)NC(=O)[C@H](C(C)C)NC(=O)[C@H](CC3CCCCC3)NC(=O)[C@H](CCN)NC(=O)[C@@H](CC(C)C)NC(=O)[C@H](CCCN)NC2=O)cc1 [Compound 1844] ({CH2CO}-Y(Carboxymethyl)[Phe(4-COOH)]D[Phe(3-Me)][Phe(4-COOH)][Bip]Y(Propargyl)[Orn][dL][Dab][Cha]VEC[Dab]-NH2; thioether N-14) |
| 0.0099 µM | CC(=O)NCCCC[C@@H]1NC(=O)CSC[C@@H](C(=O)N[C@@H](CO)C(N)=O)NC(=O)[C@H](C(C)O)NC(=O)[C@H](C(C)C)NC(=O)[C@H](CC2CCCCC2)NC(=O)[C@H](CCN)NC(=O)[C@@H](CC(C)C)NC(=O)[C@H](CCCN)NC(=O)[C@H](CCCNC(N)=O)NC(=O)[C@H](Cc2ccc(-c3ccccc3)cc2)NC(=O)[C@H](C(C)C)NC(=O)[C@H](Cc2cccc(C)c2)NC(=O)[C@H](CC(=O)O)NC(=O)[C@H](Cc2ccc(OCC(=O)O)cc2)NC1=O (stereo partly drawn) [Compound 2595] ({CH2CO}-K(Ac)Y(Carboxymethyl)D[Phe(3-Me)]V[Bip][Cit][Orn][dL][Dab][Cha]V[Thr(3ξ)]CS-NH2; thioether N-14) |
| 0.014 µM | CC(C)C[C@H]1NC(=O)[C@H](CCCN)NC(=O)[C@H](C(C)C)NC(=O)[C@H](Cc2ccc(-c3ccccc3)cc2)NC(=O)[C@H](c2ccccc2)NC(=O)[C@H](Cc2c[nH]c3ccccc23)NC(=O)[C@H](CC(=O)O)NC(=O)[C@H](Cc2ccc(OCC(=O)O)cc2)NC(=O)[C@H](CN)NC(=O)CSC[C@@H](C(=O)N[C@@H](C)C(N)=O)NC(=O)[C@H]([C@@H](C)O)NC(=O)[C@H](C(C)C)NC(=O)[C@H](CC2CCCCC2)NC(=O)[C@H](CCN)NC1=O [Compound 1736] ({CH2CO}-[Dap]Y(Carboxymethyl)DW[Phg][Bip]V[Orn][dL][Dab][Cha]VTCA-NH2; thioether N-14) |
| 0.858 µM | CC(C)C[C@H]1NC(=O)[C@H](CCCN)NC(=O)[C@H](CCCNC(N)=O)NC(=O)[C@H](Cc2ccc(-c3ccccc3)cc2)NC(=O)[C@H](C(C)C)NC(=O)[C@H](Cc2c[nH]c3ccccc23)NC(=O)[C@H](CC(=O)O)NC(=O)[C@H](Cc2ccc(OCC(=O)O)cc2)NC(=O)[C@H](CN)NC(=O)CSC[C@@H](C(=O)N[C@@H](C)C(N)=O)NC(=O)[C@H]([C@@H](C)O)NC(=O)[C@H](C(C)C)NC(=O)[C@H](Cc2ccc(C#N)cc2)NC(=O)[C@H](CCN)NC1=O [Compound 1366] ({CH2CO}-[Dap]Y(Carboxymethyl)DWV[Bip][Cit][Orn][dL][Dab][Phe(4-CN)]VTCA-NH2; thioether N-14) |
| 0.0044 µM | C#CC[C@H](NC(=O)[C@H](CCN)NC(=O)[C@@H]1CSCC(=O)N[C@@H](CCN)C(=O)N[C@@H](Cc2ccc(C(=O)O)cc2)C(=O)N[C@@H](CC(=O)O)C(=O)N[C@@H](Cc2cccc(C)c2)C(=O)N[C@@H](Cc2ccc(C(=O)O)cc2)C(=O)N[C@@H](Cc2ccc(-c3ccccc3)cc2)C(=O)N[C@@H](Cc2ccc(C(=O)O)cc2)C(=O)N[C@@H](CCCN)C(=O)N[C@H](CC(C)C)C(=O)N[C@@H](CCN)C(=O)N[C@@H](CC2CCCCC2)C(=O)N[C@@H](C(C)(C)O)C(=O)N[C@@H](CO)C(=O)N1)C(N)=O [Compound 2088] ({CH2CO}-[Dab][Phe(4-COOH)]D[Phe(3-Me)][Phe(4-COOH)][Bip][Phe(4-COOH)][Orn][dL][Dab][Cha][Val(3-OH)]SC[Dab][Pra]-NH2; thioether N-14) |
| 0.0114 µM | Cc1ccc(C[C@@H]2NC(=O)[C@H](C(C)O)NC(=O)CSC[C@@H](C(=O)N[C@@H](CCN)C(N)=O)NC(=O)[C@H](CO)NC(=O)[C@H](C(C)(C)O)NC(=O)[C@H](CC3CCCCC3)NC(=O)[C@H](CCN)NC(=O)[C@@H](CC(C)C)NC(=O)[C@H](CCCN)NC(=O)[C@H](Cc3ccc(OCC(=O)O)cc3)NC(=O)[C@H](Cc3ccc(-c4ccccc4)cc3)NC(=O)[C@H](Cc3ccc(OCC(=O)O)cc3)NC(=O)[C@H](Cc3cccc(C)c3)NC(=O)[C@H](CC(=O)O)NC2=O)cc1 (stereo partly drawn) [Compound 2667] ({CH2CO}-[Thr(3ξ)][Phe(4-Me)]D[Phe(3-Me)]Y(Carboxymethyl)[Bip]Y(Carboxymethyl)[Orn][dL][Dab][Cha][Val(3-OH)]SC[Dab]-NH2; thioether N-14) |
| 0.0072 µM | Cc1cccc(C[C@@H]2NC(=O)[C@H](CC(=O)O)NC(=O)[C@H](Cc3ccc(OCC(=O)O)cc3)NC(=O)[C@H](Cc3cnc[nH]3)NC(=O)CSC[C@@H](C(=O)N[C@@H](CCN)C(N)=O)NC(=O)[C@H](C(C)O)NC(=O)[C@H](C(C)(C)O)NC(=O)[C@H](CC3CCCCC3)NC(=O)[C@H](CCN)NC(=O)[C@@H](CC(C)C)NC(=O)[C@H](CCCN)NC(=O)[C@H](Cc3ccc(OCC(=O)O)cc3)NC(=O)[C@H](Cc3ccc(-c4ccccc4)cc3)NC(=O)[C@H](Cc3ccc(OCC(=O)O)cc3)NC2=O)c1 (stereo partly drawn) [Compound 2649] ({CH2CO}-HY(Carboxymethyl)D[Phe(3-Me)]Y(Carboxymethyl)[Bip]Y(Carboxymethyl)[Orn][dL][Dab][Cha][Val(3-OH)][Thr(3ξ)]C[Dab]-NH2; thioether N-14) |
| 0.0093 µM | C#CCOc1ccc(C[C@@H]2NC(=O)[C@H](CC3CCCCC3)NC(=O)[C@H](CCN)NC(=O)[C@@H](CC(C)C)NC(=O)[C@H](CCCN)NC(=O)[C@H](C(C)C)NC(=O)[C@H](Cc3ccc(-c4ccccc4)cc3)NC(=O)[C@H](C(C)C)NC(=O)[C@H](Cc3cccc(C)c3)NC(=O)[C@H](CC(=O)O)NC(=O)[C@H](Cc3ccc(C(=O)O)cc3)NC(=O)[C@H](CN)NC(=O)CSC[C@@H](C(=O)N[C@@H](CCN)C(N)=O)NC(=O)[C@H]([C@@H](C)O)NC2=O)cc1 [Compound 2028] ({CH2CO}-[Dap][Phe(4-COOH)]D[Phe(3-Me)]V[Bip]V[Orn][dL][Dab][Cha]Y(Propargyl)TC[Dab]-NH2; thioether N-14) |
| 0.0075 µM | C#CCC(NC(=O)[C@H](CN)NC(=O)[C@@H]1CSCC(=O)N[C@@H](Cc2ccncc2)C(=O)N[C@@H](Cc2ccc(OCC(=O)O)cc2)C(=O)N[C@@H](CC(=O)O)C(=O)N[C@@H](Cc2c[nH]c3ccccc23)C(=O)N[C@@H](C(C)C)C(=O)N[C@@H](Cc2ccc(-c3ccccc3)cc2)C(=O)N[C@@H]([C@@H](C)CC)C(=O)N[C@@H](CCCN)C(=O)N[C@H](CC(C)C)C(=O)N[C@@H](CCN)C(=O)N[C@@H](CC(C)C)C(=O)N[C@@H](C(C)C)C(=O)N[C@@H]([C@@H](C)O)C(=O)N1)C(N)=O (stereo partly drawn) [Compound 1758] ({CH2CO}-[4Pal]Y(Carboxymethyl)DWV[Bip]I[Orn][dL][Dab]LVTC[Dap][ξPra]-NH2; thioether N-14) |

Same assay, conditions: read-out: Jurkat HPD1_PDL1 IC50; Jurkat-PD-1 cells, PE-labeled PD-L1-Ig 20 nM final

| Structure (SMILES) | IC50 |
| --- | --- |
| CCC(C)[C@@H]1NC(=O)[C@H](Cc2ccc(-c3ccccc3)cc2)NC(=O)[C@H](Cc2c[nH]cn2)NC(=O)[C@H](Cc2c[nH]c3ccccc23)NC(=O)[C@H](CC(=O)O)NC(=O)[C@H](Cc2ccc(OCC(=O)O)cc2)NC(=O)[C@H](C(C)O)NC(=O)CSC[C@@H](C(=O)N[C@@H](CC(N)=O)C(=O)O)NC(=O)[C@H](CO)NC(=O)[C@H](C(C)C)NC(=O)[C@H](CC(C)C)NC(=O)[C@H](CCN)NC(=O)[C@@H](CC(C)C)NC(=O)[C@H](CCCN)NC1=O (stereo partly drawn) [Compound 2580] ({CH2CO}-[Thr(3ξ)]Y(Carboxymethyl)DWH[Bip][Ile(3ξ)][Orn][dL][Dab]LVSCN-OH; thioether N-14) | 0.045 µM |
